Series [1] relates to S. aureus. Briefly: MIC against S. aureus. Type of series: cell-based.
Series [2] has as its system S. aureus. The settings on record: elution from lenses, inocula 10^6 CFU, consecutive days; cited from earlier work.
Series [3] has as its system P. aeruginosa. Briefly: MIC against P. aeruginosa. In kind it is cell-based.
Series [4] is described as follows: Elution of CSA-138 from contact lens hydrogel, quantified by LC/MS. Type of series: physicochemical. The settings on record: lenses with CSA-138 incorporated at 1%; LC/MS detection limit about 2 μg/ml. As for the experimental part:
To better understand the mechanism by which ceragenin compounds can be eluted from a hydrogel to prevent bacterial colonization, we determined the rate at which CSA-138 elutes from a hydrogel suitable for use in contact lenses. To quantify the amount of ceragenin eluting from the hydrogel, we used LC/MS using a mass-labeled internal standard. However, this method only gave detection limits of about 2 μg/ml, and we were able to effectively kill bacteria at constant elution rates below the detection limit.

Series [5] has as its system P. aeruginosa. Particulars: elution from lenses, inocula 10^6 CFU; cited from earlier work.
Series [6] in a line: Elution of CSA-138 from contact lenses without bacteria, quantified by scintillation counting. In kind it is physicochemical. As for the experimental part: To decrease the detection limit for CSA-138, we prepared a radiolabeled version of CSA-138 (CSA-138T2), incorporated it into contact lenses, and quantified its elution from lenses using scintillation counting.
Lenses containing 1% CSA-138 were stored in 0.5 mL phosphate buffered saline (PBS) prior to testing. One set of lenses was autoclaved for 45 min before elution studies were performed. For elution studies, lenses were suspended in 2 ml aliquots of PBS, 10% TSB growth medium, 10% TSB growth medium containing 10^6 CFU of Staphylococcus aureus, or 10% TSB growth medium containing 10^6 CFU of Pseudomonas aeruginosa. Corresponding aliquots were exchanged every 24 h, including bacterial inocula. Samples were removed every 24 h and analyzed for the presence of CSA-138 using scintillation counting. A standard curve was generated to correlate counts per minute to concentration of CSA-138. All experiments were performed in triplicate.

What is called MIC is the lowest concentration that inhibits growth of the organism. Higher therefore signals weaker potency.

Structures are written as SMILES. ≈ marks a conversion by molar mass, not a printed value.

Turning to `CCCCCCCCCCCCCNCCC[C@@H](C)[C@H]1CC[C@H]2[C@@H]3[C@H](OCCCN)C[C@@H]4C[C@H](OCCCN)CC[C@]4(C)[C@H]3C[C@H](OCCCN)[C@]12C` [CSA-138], the results for the minimal inhibitory concentration (MIC) in the series on S. aureus [1] and against P. aeruginosa [3] were 0.5 µg/mL (≈ 0.669 µM) and 1.0 µg/mL (≈ 1.34 µM), respectively. Also, the “duration for which colonization is prevented” value in the series with S. aureus [2] is given as 30 days; in the series on P. aeruginosa [5], 19 days. In addition, the “time until elution fell below detection limits” value in series [4] is reported as “five”. Besides, in series [6] (lenses autoclaved 45 min before the study, compared with non-autoclaved (FIG. 4)), the “initial amount of material that eluted” value is recorded as “decreased somewhat”. Also, the “elution on the first day” value in series [6] (lenses containing 1% CSA-138 in 2 ml PBS, day 1 (FIG. 3)) is “about 2.2 μg/ml”.
For the compound `CCCCCCCCNCCC[C@@H](C)[C@H]1CC[C@H]2[C@@H]3[C@H](OCCCN)C[C@@H]4C[C@H](OCCCN)CC[C@]4(C)[C@H]3C[C@H](OCCCN)[C@]12C` [CSA-13], in series [6] (10% TSB in PBS, compared with PBS (FIG. 5)), the “elution profile in 10% TSB in PBS” value was “elution decreased”.
